Experimental data as given in paper PMC6691788, “Design and synthesis of phthalazine-based compounds as potent anticancer agents with potential antiangiogenic activity via VEGFR-2 inhibition” (Journal of Enzyme Inhibition and Medicinal Chemistry, 2019).

Experiments:
[1] = test system: OVCAR-8; assay: NCI 60 cell panel SRB screen; type: cell-based; conditions: Homo sapiens
[2] = test system: K-562; assay: NCI 60 cell panel SRB screen; type: cell-based; conditions: Homo sapiens, K562
[3] = test system: UACC-62; assay: NCI 60 cell panel SRB screen; type: cell-based
[4] = test system: DU-145; assay: NCI 60 cell panel SRB screen; type: cell-based; conditions: Homo sapiens
[5] = test system: SW-620; assay: NCI 60 cell panel SRB screen; type: cell-based; conditions: Homo sapiens
[6] = test system: OVCAR-3; assay: NCI 60 cell panel SRB screen; type: cell-based; conditions: Homo sapiens
[7] = test system: HCT-116; assay: NCI 60 cell panel SRB screen; type: cell-based; conditions: Homo sapiens
[8] = test system: SF-268; assay: NCI 60 cell panel SRB screen; type: cell-based; conditions: Homo sapiens
[9] = test system: SR; assay: NCI 60 cell panel SRB screen; type: cell-based; conditions: Homo sapiens
[10] = test system: MALME-3M; assay: NCI 60 cell panel SRB screen; type: cell-based; conditions: Homo sapiens
[11] = test system: SF-295; assay: NCI 60 cell panel SRB screen; type: cell-based; conditions: Homo sapiens
[12] = test system: SK-MEL-5; assay: NCI 60 cell panel SRB screen; type: cell-based; conditions: Homo sapiens
[13] = test system: A549/ATCC; assay: NCI 60 cell panel SRB screen; type: cell-based; conditions: Homo sapiens
[14] = test system: 786-0; assay: NCI 60 cell panel SRB screen; type: cell-based; conditions: Homo sapiens
[15] = test system: CCRF-CEM; assay: NCI 60 cell panel SRB screen; type: cell-based, human
[16] = test system: HOP-62; assay: NCI 60 cell panel SRB screen; type: cell-based; conditions: Homo sapiens
[17] = test system: UACC-257; assay: NCI 60 cell panel SRB screen; type: cell-based; conditions: Homo sapiens
[18] = molecular target: T1, VEGFR-2 tyrosine kinase (Homo sapiens, UniProt P35968); assay: In vitro VEGFR-2 tyrosine kinase assay (BPS Bioscience); type: biochemical; conditions: read-out: VEGFR-2 % inhibition; 10 μM concentration
T1 construct: purchased BPS Bioscience 40301
T1 sequence (P35968 20-1356): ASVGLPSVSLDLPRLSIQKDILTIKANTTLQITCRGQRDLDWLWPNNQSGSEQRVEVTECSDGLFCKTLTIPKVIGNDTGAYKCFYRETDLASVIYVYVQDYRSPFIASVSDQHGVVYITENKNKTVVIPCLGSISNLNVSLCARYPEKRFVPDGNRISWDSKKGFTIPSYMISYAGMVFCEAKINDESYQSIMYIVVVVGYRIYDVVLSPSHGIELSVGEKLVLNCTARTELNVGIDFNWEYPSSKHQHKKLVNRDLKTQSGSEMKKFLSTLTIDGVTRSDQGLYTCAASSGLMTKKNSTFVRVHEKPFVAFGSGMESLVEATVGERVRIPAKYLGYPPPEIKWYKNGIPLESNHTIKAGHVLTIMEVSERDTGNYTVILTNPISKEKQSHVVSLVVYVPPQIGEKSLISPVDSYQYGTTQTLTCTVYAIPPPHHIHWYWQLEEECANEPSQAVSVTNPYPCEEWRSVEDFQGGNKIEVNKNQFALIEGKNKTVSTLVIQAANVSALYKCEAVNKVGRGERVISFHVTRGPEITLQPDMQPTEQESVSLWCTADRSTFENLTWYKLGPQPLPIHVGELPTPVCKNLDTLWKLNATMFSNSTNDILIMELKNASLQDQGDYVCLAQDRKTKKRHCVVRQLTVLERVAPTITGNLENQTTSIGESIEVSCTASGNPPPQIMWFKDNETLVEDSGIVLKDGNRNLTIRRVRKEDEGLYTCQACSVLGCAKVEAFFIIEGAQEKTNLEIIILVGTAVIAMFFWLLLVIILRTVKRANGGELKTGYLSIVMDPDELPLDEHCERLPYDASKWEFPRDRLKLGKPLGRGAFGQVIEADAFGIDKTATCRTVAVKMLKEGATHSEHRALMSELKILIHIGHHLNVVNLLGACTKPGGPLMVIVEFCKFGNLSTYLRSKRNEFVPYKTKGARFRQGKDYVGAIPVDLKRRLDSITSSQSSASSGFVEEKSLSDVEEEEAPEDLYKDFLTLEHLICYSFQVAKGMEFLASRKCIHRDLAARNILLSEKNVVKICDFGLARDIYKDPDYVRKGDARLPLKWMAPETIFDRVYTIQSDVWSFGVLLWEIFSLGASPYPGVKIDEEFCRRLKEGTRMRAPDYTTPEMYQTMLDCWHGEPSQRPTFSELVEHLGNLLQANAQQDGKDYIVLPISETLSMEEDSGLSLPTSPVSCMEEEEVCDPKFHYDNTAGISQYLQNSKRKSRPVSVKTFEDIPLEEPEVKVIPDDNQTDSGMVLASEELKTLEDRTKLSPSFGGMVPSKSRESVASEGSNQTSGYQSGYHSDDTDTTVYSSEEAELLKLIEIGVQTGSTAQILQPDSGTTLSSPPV
Procedure, shortened: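 For IC50, ADP formation after a 30-min 30 °C reaction was detected by ADP-Glo luminescence in duplicate, blank-subtracted and fitted as log inhibitor versus normalised response. The 10 µM single-dose test instead measured remaining ATP (Kinase-Glo Plus) after 40 min at 30 °C with poly(Glu,Tyr) substrate, 10 μM ATP, pH 7.4, 1% DMSO.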

[19] = test system: RPMI-8226; assay: NCI 60 cell panel SRB screen; type: cell-based; conditions: Homo sapiens
[20] = test system: M14; assay: NCI 60 cell panel SRB screen; type: cell-based; conditions: Homo sapiens
[21] = single dose 10 μM, read-out: percent cell growth promotion

Compound: COc1cccc(NCc2nnc(Nc3ccc(Cl)cc3)c3ccccc23)c1 [Compound 16d, N-(4-Chlorophenyl)-4-((3-methoxyphenylamino)methyl)phthalazin-1-amine]
- GI50 ([1]; OVCAR-8, 5 log dose): 3.61 µM
- IC (TGI) ([1]; OVCAR-8, 5 log dose): 14.7 µM
- CC50 ([1]; OVCAR-8, 5 log dose, 48 h, read-out: LC50 (the source's name)): > 25 µM
- activity at 10 µM ([1]; OVCAR-8, single dose 10 μM, read-out: percent cell growth promotion): 3.02%
- GI50 ([2]; K-562, 5 log dose): 1.49 µM
- IC (TGI) ([2]; K-562, 5 log dose): 13.1 µM
- CC50 ([2]; K-562, 5 log dose, 48 h, read-out: LC50 (the source's name)): > 25 µM
- activity at 10 µM ([2]; K-562, single dose 10 μM, read-out: percent cell growth promotion): 2.2%
- GI50 ([3]; Homo sapiens, UACC-62): 1 µM
- activity at 10 µM ([3]; Homo sapiens, UACC-62, read-out: percent cell growth promotion): -29.2%
- CC50 ([3]; Homo sapiens, UACC-62, 5 log dose, 48 h, read-out: LC50 (the source's name)): 20.1 µM
- TGI ([3]; UACC-62, 5 log dose): 5.76 µM
- GI50 ([4]; DU-145, 5 log dose): 2.4 µM
- IC (TGI) ([4]; DU-145, 5 log dose): 6.52 µM
- CC50 ([4]; DU-145, 5 log dose, 48 h, read-out: LC50 (the source's name)): 17.2 µM
- activity at 10 µM ([4]; DU-145, single dose 10 μM, read-out: percent cell growth promotion): 8.3%
- GI50 ([5]; SW-620, 5 log dose): 2.98 µM
- IC (TGI) ([5]; SW-620, 5 log dose): 8.13 µM
- CC50 ([5]; SW-620, 5 log dose, 48 h, read-out: LC50 (the source's name)): 22.2 µM
- activity at 10 µM ([5]; SW-620, single dose 10 μM, read-out: percent cell growth promotion): 11.9%
- GI50 ([6]; OVCAR-3, 5 log dose): 1.64 µM
- IC (TGI) ([6]; OVCAR-3, 5 log dose): 10 µM
- CC50 ([6]; OVCAR-3, 5 log dose, 48 h, read-out: LC50 (the source's name)): > 25 µM
- activity at 10 µM ([6]; OVCAR-3, single dose 10 μM, read-out: percent cell growth promotion): -53.6%
- GI50 ([7]; HCT-116, 5 log dose): 0.88 µM
- IC (TGI) ([7]; HCT-116, 5 log dose): 4.2 µM
- LC50 (lethal concentration 50%) ([7]; HCT-116, 5 log dose, 48 h): 11.2 µM
- activity at 10 µM ([7]; HCT-116, single dose 10 μM, read-out: percent cell growth promotion): -44.2%
- GI50 ([8]; SF-268, 5 log dose): 2.05 µM
- IC (TGI) ([8]; SF-268, 5 log dose): 10.5 µM
- CC50 ([8]; SF-268, 5 log dose, 48 h, read-out: LC50 (the source's name)): > 25 µM
- activity at 10 µM ([8]; SF-268, single dose 10 μM, read-out: percent cell growth promotion): 2.52%
- GI50 ([9]; 5 log dose): 0.97 µM
- IC (TGI) ([9]; 5 log dose): 8.85 µM
- CC50 ([9]; 5 log dose, 48 h, read-out: LC50 (the source's name)): > 25 µM
- activity at 10 µM [9, 21]: -24.5%
- GI50 ([10]; Malme-3M): 1.22 µM
- IC (TGI) ([10]; Malme-3M, read-out: TGI): 6.23 µM
- activity at 10 µM ([10]; Malme-3M, read-out: percent cell growth promotion): -22%
- CC50 ([10]; MALME-3M, 5 log dose, 48 h, read-out: LC50 (the source's name)): 17.3 µM
- GI50 ([11]; SF-295, 5 log dose): 1.94 µM
- IC (TGI) ([11]; SF-295, 5 log dose): 8.24 µM
- CC50 ([11]; SF-295, 5 log dose, 48 h, read-out: LC50 (the source's name)): > 25 µM
- activity at 10 µM ([11]; SF-295, single dose 10 μM, read-out: percent cell growth promotion): -22.6%
- GI50 ([12]; SK-MEL-5): 0.81 µM
- IC (TGI) ([12]; SK-MEL-5, read-out: TGI): 4.18 µM
- activity at 10 µM ([12]; SK-MEL-5, read-out: percent cell growth promotion): -98.5%
- CC50 ([12]; SK-MEL-5, 5 log dose, 48 h, read-out: LC50 (the source's name)): 10.2 µM
- GI50 ([13]; 5 log dose): 1.93 µM
- IC (TGI) ([13]; 5 log dose): 9.42 µM
- LC50 (concentration killing 50% of cells) ([13]; 5 log dose, 48 h): > 25 µM
- activity at 10 µM [13, 21]: 2.56%
- GI50 ([14]; 786-0, 5 log dose): 2.22 µM
- IC (TGI) ([14]; 786-0, 5 log dose): 7.63 µM
- CC50 ([14]; 786-0, 5 log dose, 48 h, read-out: LC50 (the source's name)): 24.4 µM
- activity at 10 µM ([14]; 786-0, single dose 10 μM, read-out: percent cell growth promotion): -5.76%
- TGI ([15]; 5 log dose): 13.4 µM
- GI50 ([15]; Homo sapiens, 5 log dose): 2.73 µM
- CC50 ([15]; Homo sapiens, 5 log dose, 48 h, read-out: LC50 (the source's name)): > 25 µM
- activity at 10 µM ([15]; Homo sapiens, single dose 10 μM, read-out: percent cell growth promotion): -4.42%
- GI50 ([16]; HOP-62, 5 log dose): 2.06 µM
- IC (TGI) ([16]; HOP-62, 5 log dose): 8.48 µM
- CC50 ([16]; HOP-62, 5 log dose, 48 h, read-out: LC50 (the source's name)): > 25 µM
- activity at 10 µM ([16]; HOP-62, single dose 10 μM, read-out: percent cell growth promotion): -17.1%
- GI50 ([17]; UACC-257): 2.04 µM
- IC (TGI) ([17]; UACC-257, read-out: TGI): 5.28 µM
- activity at 10 µM ([17]; UACC-257, read-out: percent cell growth promotion): -39.7%
- CC50 ([17]; UACC-257, 5 log dose, 48 h, read-out: LC50 (the source's name)): 11.6 µM
- inhibition at 10 µM [18]: 24%
- GI50 ([19]; RPMI-8226, 5 log dose): 1.48 µM
- IC (TGI) ([19]; RPMI-8226, 5 log dose): 7.51 µM
- CC50 ([19]; RPMI-8226, 5 log dose, 48 h, read-out: LC50 (the source's name)): > 25 µM
- activity at 10 µM ([19]; RPMI-8226, single dose 10 μM, read-out: percent cell growth promotion): -28.1%
- GI50 ([20]; M14): 0.85 µM
- IC (TGI) ([20]; M14, read-out: TGI): 4.69 µM
- activity at 10 µM ([20]; M14, read-out: percent cell growth promotion): -15.7%
- CC50 ([20]; M14, 5 log dose, 48 h, read-out: LC50 (the source's name)): 12.9 µM
